# Experimental data published in article PMC8002823, “Synthesis and Structure–Activity Relationships of Aristoyagonine Derivatives as Brd4 Bromodomain Inhibitors with X-ray Co-Crystal Research” (Molecules, 2021).
# Columns and labels:
# Brd4 bromodomain = target: T1, Brd4 bromodomain (Homo sapiens, UniProt O60885); experiment: Alpha-screen enzyme assay (bromodomain binding to acetylated histone peptide); details: for IC50 / inhibitory activity against Brd4 bromodomain (in words): alpha-screen assay; for IC50: inhibition of bromodomain binding activity, calculated with Prism6;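 as to all read-outs here: AlphaScreen proximity readout pairing streptavidin donor beads with anti-GST acceptor beads, with hits checked against bead interference using a TruHit control kit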
# T1 construct: glutathione-S-transferase (GST) and His-tagged bromodomain; made in house
# Procedure: Bromodomain was prepared as previously described. […] Streptavidin-coated donor beads and anti-GST alpha-screen acceptor beads were added under low-light condition. […] The alpha-screen results were confirmed by using alpha-screen TruHit kits (PerkinElmer, USA).
# Ty82 cells = experiment: Cell cytotoxic assay in Ty82 cells; type: cell-based; details: Homo sapiens; for CC50: Ty82 cell cytotoxic activity, 72 h; for IC50: TY82, cell cytotoxic activity (Table 4 head prints IC50)
# Procedure: For the viability experiments, Ty82 cells were seeded in 96-well plates at 30% confluency and exposed to chemicals the next day. After 72 h, WST-1 reagent was added, and absorbance at 450 nm was measured by using a Spectramax spectrophotometer (Molecular Devices, San Jose, CA, USA) in accordance with the manufacturer’s instructions. The CC50 values were calculated by using GraphPad Prism version 5 for Windows. The curves were fitted using a nonlinear regression model with a log (inhibitor) versus response formula.
Structure (SMILES),IC50 (Brd4 bromodomain) [µM],melting point [°C],inhibitory activity against Brd4 bromodomain (in words) (Brd4 bromodomain),increase in activity compared with 8ae (Brd4 bromodomain; Brd4 IC50 ratio),CC50 (Ty82 cells) [µM],IC50 (Ty82 cells) [µM]
"COc1ccc2c3c1Oc1ccc(OCc4ccccn4)cc1C=C3N(C)C2=O [Compound 8bf, 5-Methoxy-1-methyl-9-(pyridine-2-ylmethoxy)benzo[6,7]oxepino[4,3,2-cd]isoindol-2(1H)-one]",0.91,176 to 178,,,0.23,
"COc1ccc(CCOc2c(OC)ccc3c2Oc2c(OC)ccc4c2C(=C3)N(C)C4=O)cc1 [Compound 8ac, 5,8-Dimethoxy-7-(4-methoxyphenethoxy)-1-methylbenzo[6,7]oxepino[4,3,2-cd]isoindol-2(1H)-one]",3.74,,,,> 20,
"CCOc1ccc2c3c1Oc1c(ccc(OC)c1OC)C=C3N(C)C2=O [Compound 8ae, 5-Ethoxy-7,8-dimethoxy-1-methylbenzo[6,7]oxepino[4,3,2-cd]isoindol-2(1H)-one]",4.16,219 to 220,slightly increased the inhibitory activity compared with 8af,,,
"COc1ccc2c3c1Oc1ccc(C(F)(F)F)cc1C=C3N(C)C2=O [Compound 8bb, 5-Methoxy-1-methyl-9-(trifluoromethyl)benzo[6,7]oxepino[4,3,2-cd]isoindol-2(1H)-one]",> 32,,no inhibitory activity,,> 20,
"CCOc1ccc2c3c1Oc1c(ccc(OC)c1OCCc1ccc(OC)cc1)C=C3N(C)C2=O [Compound 8af, 5-Ethoxy-8-methoxy-7-(4-methoxyphenethoxy)-1-methylbenzo[6,7]oxepino[4,3,2-cd]isoindol-2(1H)-one]",5.33,189 to 191,weak inhibitory effect,,> 4,
"COc1cccc2c1Oc1c(OC)ccc3c1C(=C2)N(C)C3=O [Compound 8aa, 5,7-Dimethoxy-1-methylbenzo[6,7]oxepino[4,3,2-cd]isoindol-2(1H)-one]",0.84,208 to 210,,,,
"COc1ccc2c3c1Oc1ccc(OCC(C)C)cc1C=C3N(C)C2=O [Compound 8ba, 9-Isobutoxy-5-methoxy-1-methylbenzo[6,7]oxepino[4,3,2-cd]isoindol-2(1H)-one]",16.7,,,,,
"CCCc1ccc2c3c1Oc1ccc(OCC(C)C)cc1C=C3N(C)C2=O [Compound 8da, 9-Isobutoxy-1-methyl-5-propylbenzo[6,7]oxepino[4,3,2-cd]isoindol-2(1H)-one]",6.64,196 to 199,,,,10
"COc1ccc2c3c1Oc1ccc(O)cc1C=C3N(C)C2=O [Compound 8bd, 9-Hydroxy-5-methoxy-1-methylbenzo[6,7]oxepino[4,3,2-cd]isoindol-2(1H)-one]",0.41,177 to 179,,,0.54,
"CCOc1ccc2c3c1Oc1ccc(OCC(C)C)cc1C=C3N(C)C2=O [Compound 8bi, 9-Isobutoxy-5-ethoxy-1-methylbenzo[6,7]oxepino[4,3,2-cd]isoindol-2(1H)-one]",> 10,178 to 180,,,,
"CCOc1c(OC)ccc2c1Oc1c(OC)ccc3c1C(=C2)N(C)C3=O [Compound 8ab, 7-Ethoxy-5,8-dimethoxy-1-methylbenzo[6,7]oxepino[4,3,2-cd]isoindol-2(1H)-one]",0.86,,,four-fold increased activity,,
"COc1ccc2c3c1Oc1ccc(OCc4ccccc4)cc1C=C3N(C)C2=O [Compound 8bg, 9-Benzyloxy-5-methoxy-1-methylbenzo[6,7]oxepino[4,3,2-cd]isoindol-2(1H)-one]",> 32,187 to 189,did not,,,

# Second part, led by results:
IC50 (Brd4 bromodomain) [µM],melting point [°C],inhibitory activity against Brd4 bromodomain (in words) (Brd4 bromodomain),increase in activity compared with 8ae (Brd4 bromodomain; Brd4 IC50 ratio),Structure (SMILES),CC50 (Ty82 cells) [µM],IC50 (Ty82 cells) [µM]
0.91,169 to 171,,,"CCOc1ccc2c3c1Oc1ccc(OCCN(CC)CC)cc1C=C3N(C)C2=O [Compound 8bm, 9-(2-(Diethylamino)ethoxy)-5-ethoxy-1-methylbenzo[6,7]oxepino[4,3,2-cd]isoindol-2(1H)-one]",0.66,
11.1,237 to 239,modest inhibition,,"COc1ccc2c3c1Oc1cc4c(cc1C=C3N(C)C2=O)OCO4 [Compound 8bh, 5-Methoxy-1-methyl-[1,3]dioxolo[4”,5”.4′,5′]benzo[1′,2′:6,7]oxepino[4,3,2-cd]isoindol-2(1H)-one]",2.16,
2.89,207 to 209,modest inhibition,,"CCOc1ccc2c3c1Oc1cc4c(cc1C=C3N(C)C2=O)OCO4 [Compound 8bp, 5-Ethoxy-1-methyl-[1,3]dioxolo[4”,5”.4′,5′]benzo[1′,2′:6,7]oxepino[4,3,2-cd]isoindol-2(1H)-one]",3.81,
,198 to 200,,,CCOc1ccc2c3c1Oc1ccc(OCc4ccccc4)cc1C=C3N(C)C2=O [Compound 8bo],,
2.69,257 to 259,,,"CCCc1ccc2c3c1Oc1cc4c(cc1C=C3N(C)C2=O)OCO4 [Compound 8de, 1-methyl-5-propyl-[1,3]dioxolo[4”,5”.4′,5′]benzo[1′,2′:6,7]oxepino[4,3,2-cd]isoindol-2(1H)-one]",,4.5
> 9,230 to 232,,,"CCOc1ccc2c3c1Oc1ccc(C(F)(F)F)cc1C=C3N(C)C2=O [Compound 8bj, 5-Ethoxy-1-methyl-9-(trifluoromethyl)benzo[6,7]oxepino[4,3,2-cd]isoindol-2(1H)-one]",> 20,
7.29,199 to 201,,,"CCN(CC)c1ccc2c3c1Oc1cc4c(cc1C=C3N(C)C2=O)OCO4 [Compound 8ce, 5-(Diethylamino)-1-methyl-[1,3]dioxolo[4”,5”.4′,5′]benzo[1′,2′:6,7]oxepino[4,3,2-cd]isoindol-2(1H)-one]",10,
> 32,185 to 188,,,"CCN(CC)c1ccc2c3c1Oc1ccc(OCc4ccccc4)cc1C=C3N(C)C2=O [Compound 8cd, 9-(Benzyloxy)-5-(diethylamino)-1-methylbenzo[6,7]oxepino[4,3,2-cd]isoindol-2(1H)-one]",> 20,
5.86,165 to 167,,,"CCN(CC)c1ccc2c3c1Oc1ccc(O)cc1CC3N(C)C2=O (stereo not shown) [Compound 8cc, 5-(Diethylamino)-9-hydroxy-1-methyl-11,11a-dihydrobenzo[6,7]oxepino[4,3,2-cd]isoindol-2(1H)-one]",10,
1.37,,,,"CCCc1ccc2c3c1Oc1ccc(OCc4ccccn4)cc1C=C3N(C)C2=O [Compound 8dc, 1-Methyl-5-propyl-9-(pyridine-2-ylmethoxy)benzo[6,7]oxepino[4,3,2-cd]isoindol-2(1H)-one]",,1.77
1.12,,,,"CCOc1ccc2c3c1Oc1ccc(O)cc1C=C3N(C)C2=O [Compound 8bl, 5-Ethoxy-9-hydroxy-1-methylbenzo[6,7]oxepino[4,3,2-cd]isoindol-2(1H)-one]",0.31,
> 32,227 to 229,,,"Cc1ccc2c3c1Oc1ccc(C(F)(F)F)cc1C=C3N(C)C2=O [Compound 8df, 1,5-Dimethyl-9-(trifluoromethyl)benzo[6,7]oxepino[4,3,2-cd]isoindol-2(1H)-one]",,
